Measured values as given in the supplement of paper PMC10307832.

Columns and labels:
Test in all cases: relative viability (nuclei count vs DMSO), 5 days (fraction); higher = more cells survive
[1] = compound: COc1cc2nccc(Oc3ccc(NC(=O)C4(C(=O)Nc5ccc(F)cc5)CC4)cc3)c2cc1OC [Cabozantinib] + CS(=O)(=O)CCNCc1ccc(-c2ccc3ncnc(Nc4ccc(OCc5cccc(F)c5)c(Cl)c4)c3c2)o1 [Lapatinib] (partner 2 µM)
Summary of the method: (§1)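 Five library-drug doses in √10 steps were combined with a fixed anchor-drug dose, or a single drug was given alone, by pin tool to lung cancer cell lines in 1536-well plates the day after seeding. Nuclei were stained and counted after 5 days. Relative viability is the nuclei count in treated wells over that in vehicle wells, taken as the median of duplicate plates.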

[2] = compound: O[C@@H](COc1cccc2ncccc12)CN1CCN([C@@H]2c3ccccc3[C@@H]3[C@H](c4ccccc42)C3(F)F)CC1 [Zosuquidar] + O=C(c1cc(Cc2n[nH]c(=O)c3ccccc23)ccc1F)N1CCN(C(=O)C2CC2)CC1 [Olaparib] (partner 8 µM)
Summary of the method: as §1

[3] = compound: C1=CC(=CC=C1NC(=S)NNC2=C(C=C(C=C2[N+](=O)[O-])C(F)(F)F)[N+](=O)[O-])F [Kobe2602] + N=C(N)NC(=N)NCCc1ccccc1 [Phenformin] (partner 250 µM)
Summary of the method: as §1

[4] = compound: O[C@@H](COc1cccc2ncccc12)CN1CCN([C@@H]2c3ccccc3[C@@H]3[C@H](c4ccccc42)C3(F)F)CC1 [Zosuquidar] + N=C(N)NC(=N)NCCc1ccccc1 [Phenformin] (partner 250 µM)
Summary of the method: as §1

Row | Cell Line | relative viability ([1]; first compound 0.02 µM) | relative viability ([1]; first compound 0.06325 µM) | relative viability ([1]; first compound 0.2 µM) | relative viability ([1]; first compound 0.6325 µM) | relative viability ([1]; first compound 2 µM) | relative viability ([2]; first compound 0.01 µM) | relative viability ([2]; first compound 0.03162 µM) | relative viability ([2]; first compound 0.1 µM) | relative viability ([2]; first compound 0.3162 µM) | relative viability ([2]; first compound 1 µM) | relative viability ([3]; first compound 0.2 µM) | relative viability ([3]; first compound 0.6325 µM) | relative viability ([3]; first compound 2 µM) | relative viability ([3]; first compound 6.325 µM) | relative viability ([3]; first compound 20 µM) | relative viability ([4]; first compound 0.01 µM) | relative viability ([4]; first compound 0.03162 µM) | relative viability ([4]; first compound 0.1 µM) | relative viability ([4]; first compound 0.3162 µM) | relative viability ([4]; first compound 1 µM)
1 | EBC-1 | 0.192 | 0.17 | 0.242 | 0.195 | 0.213 | 0.692 | 0.797 | 0.638 | 0.827 | 0.705 |  |  |  |  |  |  |  |  |  | 
2 | IA-LM | 0.92 | 0.91 | 1.02 | 0.946 | 0.808 | 0.817 | 0.805 | 0.82 | 0.879 | 0.885 |  |  |  |  |  |  |  |  |  | 
3 | LCLC-103H |  |  |  |  |  | 0.743 | 0.721 | 0.808 | 0.759 | 0.695 | 0.359 | 0.381 | 0.32 | 0.343 | 0.351 | 0.306 | 0.314 | 0.255 | 0.356 | 0.331
4 | NCI-H441 |  |  |  |  |  | 0.708 | 0.61 | 0.738 | 0.482 | 0.525 | 0.801 | 0.81 | 0.876 | 0.814 | 0.903 | 0.903 | 0.845 | 0.643 | 0.832 | 0.916
5 | NCI-H522 |  |  |  |  |  | 0.724 | 0.623 | 0.684 | 0.766 | 0.668 | 0.731 | 0.63 | 0.646 | 0.732 | 0.623 | 0.654 | 0.606 | 1.07 | 0.682 | 0.62
6 | NCI-H1299 | 0.95 | 1.04 | 0.936 | 1.03 | 1.04 | 0.982 | 0.976 | 0.993 | 0.963 | 1.01 |  |  |  |  |  |  |  |  |  | 
7 | NCI-H1563 | 0.946 | 0.966 | 1.04 | 0.844 | 1.21 |  |  |  |  |  | 0.684 | 0.719 | 0.675 | 0.668 | 0.676 | 0.671 | 0.681 | 0.595 | 0.666 | 0.683
8 | NCI-H1623 |  |  |  |  |  |  |  |  |  |  | 0.633 | 0.571 | 0.563 | 0.555 | 0.589 | 0.622 | 0.662 | 0.537 | 0.613 | 0.576
9 | NCI-H1648 |  |  |  |  |  | 0.5 | 0.908 | 0.614 | 0.799 | 0.877 |  |  |  |  |  |  |  |  |  | 
10 | NCI-H1703 |  | 0.587 | 0.337 | 0.282 | 0.231 | 0.413 | 0.421 | 0.394 | 0.858 | 0.451 |  |  |  |  |  |  |  |  |  | 
11 | NCI-H2342 |  |  |  |  |  | 0.459 | 0.544 | 0.421 | 0.501 | 0.439 | 0.658 | 0.607 | 0.563 | 0.553 | 0.662 | 0.581 | 0.558 | 0.49 | 0.581 | 0.623
12 | SW 900 |  |  |  |  |  | 0.853 | 0.93 |  | 1.06 | 0.838 | 0.609 | 0.843 | 0.521 | 0.691 | 0.775 | 0.597 | 0.578 | 0.618 | 0.738 | 0.557
